According to patent publication US20250057961A1, “BLOOD-BRAIN BARRIER PENETRATING DRUG DELIVERY SYSTEM USING SIALYLLACTOSE” (GENECHEM INC., priority 2021, published 2025):
Entries after “also recorded” stand apart in the source; their conditions may differ. Read-outs that look alike come from different tables or passages of the source.

Legend:
[1] = mouse, in vivo
Description: (§1) First, the fluorescent substance Cy5.5 (Genechem, Cat no. GCCD0064) was attached to each of lactose, 2,3-sialyllactose (GCB100) and 2,6-sialyllactose (GCB200), and each substance was dissolved and diluted in 10% DMSO, thus preparing samples (final DMSO concentration is approximately 2% of the total volume). After administering each sample at 1 mol/kg into the veins of BALB/c nude mice, the fluorescence signals in the brains of the nude mice were measured at different time points (1, 2, 4, 6, 8, and 24 hours) using the IVIS spectrum CT (Perkin Elmer).
(§2) Next, the fluorescent substance Cy5.5 (Genechem, Cat no. GCCD0064) was attached to each of sialic acid, 2,3-sialyllactose (GCB100) and 2,6-sialyllactose (GCB200), and each substance was dissolved and diluted in 10% DMSO, thus preparing samples (final DMSO concentration is approximately 2% of the total volume). After administering each sample at 1 mol/kg into the veins of BALB/c nude mice, the fluorescence signals in the brains of the nude mice were measured at different time points (10 min, 30 min, 1, 2, 4, 6, 8, and 24 hours) using the IVIS spectrum CT (Perkin Elmer). 24 hours after administration, the nude mice were perfused with saline solution, the brains were extracted, and fluorescence present in the brains was measured.
(§3) The experiment was conducted in the same manner as the above-described experiment on blood-brain barrier penetration of sialyllactose.
(§4) Here, Cy5.5 alone and gemcitabine attached to only Cy5.5 were used as controls. First, each material was dissolved and diluted in 10% DMSO, thus preparing samples (final DMSO concentration is approximately 2% of the total volume). After administering each sample at 1 mol/kg into the veins of BALB/c nude mice, the fluorescence signals in the brains of the nude mice were measured at different time points (10 min, 30 min, 1, 2, 4, 6, 8, and 24 hours) using the IVIS spectrum CT (Perkin Elmer). 24 hours after administration, the nude mice were perfused with saline solution, the brains were extracted, and fluorescence present in the brains was measured.

U-87MG = test: Anticancer efficacy in mouse brain cancer model (luciferase-expressing U-87MG transplanted into brain, optical imaging); type: in vivo; conditions: intravenously twice a week, 8 times for 4 weeks; GCB017 22 mol/kg; days 20, 24, 27; FIG. 13
Description: The brain cancer model was produced by transplanting U-87MG, a brain cancer cell line that expresses luciferase. For transplantation into the brain, each animal was anesthetized by isoflurane injection and fixed on a stereotaxic arm, and the head skin was incised vertically by about 1 cm and the injection site was exposed using a micro drill. The cell line was transferred into a 25-μl Hamilton syringe equipped with a 31-gauge needle, and then the cell line was transplanted at a rate of 1 i/min to an area 1 mm anterior, 2 mm lateral, and 3 mm deep based on bregma. After cell line transplantation, in order to prevent reflux and ensure good absorption, the syringe was maintained for about 10 minutes and separated, and the incision was sutured and disinfected. After confirming that the anesthesia had worn off, the animals were reared normally. Starting 1 week after model production, each of methotrexate and GCB017 was administered intravenously twice a week for a total of 8 times for 4 weeks, and the size of the brain tumor was measured by optical imaging (FIG. 13). […] In combination with the results of Examples 3-2 and 3-3 above, it is believed that the sialyllactose-methotrexate conjugate according to the present invention has an improved BBB penetration ability compared to methotrexate and inhibits tumor formation and growth.

[2] = Brain tissue penetration and substance dissociation (LC-MS/MS of tissue homogenate supernatant); type: in vivo
Description: To examine the distribution and dissociation of sialyllactose-conjugated methotrexate in tissues, GCB017 was administered and the presence of GCB017 and its dissociates (linker-6′SL (L-6′SL) and linker) in the brain and pancreas was checked. Specifically, GCB017 was dissolved and diluted in 10% DMSO, thus preparing a sample (final DMSO concentration was approximately 2% of the total volume). The sample was administered intravenously (IV) at a dose of 80 mg/kg or administered orally (PO) at a dose of 80 mg/kg. Then, at different time points (0, 0.5, 2, and 4 hours), the animals were anesthetized, heart blood was collected, saline solution was perfused, and the brain and pancreas were extracted. Each of the extracted tissues was homogenized in 50 mM Tris-HCl buffer (pH 7.5) at a ratio of 1:5 and centrifuged at 3,000 rpm and 4° C. for 20 minutes, and the supernatant was collected and subjected to mass spectrometry (SCIEX Triple Quad 3500 LC-MS/MS system).
The sample was administered intravenously (IV) at a dose of 80 mg/kg or administered orally (PO) at a dose of 246 mg/kg. Then, at different time points (0, 0.5, 2, and 4 hours), the animals were anesthetized, heart blood was collected, saline solution was perfused, and the brain and pancreas were extracted. Each of the extracted tissues was homogenized in 50 mM Tris-HCl buffer (pH 7.5) at a ratio of 1:5 and centrifuged at 3,000 rpm and 4° C. for 20 minutes, and the supernatant was collected and subjected to mass spectrometry (SCIEX Triple Quad 3500 LC-MS/MS system).

[3] = Blood-brain barrier penetration experiment: brain fluorescence of Cy5.5-attached substances (IVIS spectrum CT, in vivo and extracted brain); conditions: for brain penetration (fluorescence signal in the brain): Cy5.5-attached substance, into the veins, up to 24 hours, FIGS. 1-3
Description: as §1, §2, §3, §4

BxPC-3 = conditions: 5, 10, 20 and 40 nM, 72 hours, FIG. 16A
Caspase-3 = conditions: BxPC-3, 5-40 nM, 72 hours, FIG. 16B
PARP = conditions: BxPC-3, 5-40 nM, 72 hours, FIG. 16B

## CC(=O)N[C@H]1[C@H]([C@H](O)[C@H](O)CO)O[C@@](OC[C@H]2O[C@@H](O[C@H]3[C@H](O)[C@@H](O)[C@H](OCCCCCCNC(=O)CC[C@H](NC(=O)c4ccc(N(C)Cc5cnc6nc(N)nc(N)c6n5)cc4)C(=O)O)O[C@@H]3CO)[C@H](O)[C@@H](O)[C@H]2O)(C(=O)O)C[C@@H]1O [GCB017]
[1]
  fluorescence signal in the brain of sialyllactose-conjugated methotrexate: a strong fluorescence signal appeared
U-87MG
  size of the brain tumor: tumor formation was delayed and the tumor size was also controlled
[2]; 80 mg/kg IV or 80 mg/kg PO
  presence of GCB017 and its dissociates in brain tissue: detected in the brain tissue not only when GCB017 was administered intravenously but also when administered orally
[2]; brain, iv, 80 mg/kg, GCB017 80 mg/kg IV, 2 h, single animals
  level at 2 h: 52.7 ng/mL
[2]; brain, po, 80 mg/kg, GCB017 80 mg/kg PO, 4 h, single animals
  level at 4 h: 30.3 ng/mL

## 2,6-sialyllactose [GCB200]
[3]
  brain penetration (fluorescence signal in the brain): well delivered to the brain, compared to lactose-bound Cy5.5; also recorded: the effect of 2,6-sialyllactose was higher than that of 2,3-sialyllactose

## CC(=O)N[C@H]1[C@H]([C@H](O)[C@H](O)CO)OC(O)(C(=O)O)C[C@@H]1O (stereo partly drawn) [sialic acid, reference compound]
[1]
  brain penetration (fluorescence signal in the brain): brain penetration remained at a similar level

## 2,3-sialyllactose [GCB100]
[3]
  brain penetration (fluorescence signal in the brain): well delivered to the brain, compared to lactose-bound Cy5.5

## CCN1\C(=C/C=C/C=C/C2=[N+](CCCCCC(=O)O)c3ccc4c(S(=O)(=O)O)cc(S(=O)(=O)O)cc4c3C2(C)C)C(C)(C)c2c1ccc1c(S(=O)(=O)[O-])cc(S(=O)(=O)O)cc21 [Cy5.5, reference compound]
[3]
  brain penetration (fluorescence signal in the brain): barely penetrated the blood-brain barrier
[3]; Cy5.5-attached, controls Cy5.5-dopamine or Cy5.5, FIGS. 5, 6, 8, 9
  brain penetration (fluorescence signal in the brain) of sialyllactose-conjugated dopamine: barely detected in the brain

## gemcitabine-succinate-aminohexyl-6′SL [GCB034]
BxPC-3
  cell viability (anticancer effect): induce cancer cell death at all treatment concentrations, but also exhibited a higher anticancer effect than gemcitabine
Caspase-3
  increase in Caspase-3 cleavage: significant in a concentration-dependent manner
PARP
  decrease in the pro-form of PARP: significant in a concentration-dependent manner

## CN(Cc1cnc2nc(N)nc(N)c2n1)c1ccc(C(=O)N[C@@H](CCC(=O)O)C(=O)O)cc1 [methotrexate, reference compound]
[3]; Cy5.5-attached, time-dependent and extracted brain at 24 hours, FIGS. 11, 12
  fluorescence signal in the brain of sialyllactose-conjugated methotrexate: almost no fluorescence signal appeared in the brain
U-87MG
  size of the brain tumor: the tumor size also tended to increase gradually starting from day 20
